In ChEMBL document CHEMBL5352447, “Development of [1,2]oxazoloisoindoles tubulin polymerization inhibitors: Further chemical modifications and potential therapeutic effects against lymphomas” (Eur J Med Chem, 2022):

Assays:
CCRF-CEM = assay: Antiproliferative activity against human CCRF-CEM cells assessed as cell growth inhibition incubated for 72 hrs by MTT assay; assay type: functional
MOLT-4 = assay: Antiproliferative activity against human MOLT-4 cells assessed as cell growth inhibition incubated for 72 hrs by MTT assay; assay type: functional
RPMI-8226 = assay: Antiproliferative activity against human RPMI-8226 cells assessed as cell growth inhibition incubated for 72 hrs by MTT assay; assay type: functional
EKVX = assay: Antiproliferative activity against human EKVX cells assessed as cell growth inhibition incubated for 72 hrs by MTT assay; assay type: functional
HOP-92 = assay: Antiproliferative activity against human HOP-92 cells assessed as cell growth inhibition incubated for 72 hrs by MTT assay; assay type: functional
NCI-H226 = assay: Antiproliferative activity against human NCI-H226 cells assessed as cell growth inhibition incubated for 72 hrs by MTT assay; assay type: functional
NCI-H23 = assay: Antiproliferative activity against human NCI-H23 cells assessed as cell growth inhibition incubated for 72 hrs by MTT assay; assay type: functional
NCI-H322M = assay: Antiproliferative activity against human NCI-H322M cells assessed as cell growth inhibition incubated for 72 hrs by MTT assay; assay type: functional
NCI-H460 = assay: Antiproliferative activity against human NCI-H460 cells assessed as cell growth inhibition incubated for 72 hrs by MTT assay; assay type: functional
COLO 205 = assay: Antiproliferative activity against human COLO 205 cells assessed as cell growth inhibition incubated for 72 hrs by MTT assay; assay type: functional
HCT-116 = assay: Antiproliferative activity against human HCT-116 cells assessed as cell growth inhibition incubated for 72 hrs by MTT assay; assay type: functional
HCT-15 = assay: Antiproliferative activity against human HCT-15 cells assessed as cell growth inhibition incubated for 72 hrs by MTT assay; assay type: functional
HT-29 = assay: Antiproliferative activity against human HT-29 cells assessed as cell growth inhibition incubated for 72 hrs by MTT assay; assay type: functional
KM12 = assay: Antiproliferative activity against human KM12 cells assessed as cell growth inhibition incubated for 72 hrs by MTT assay; assay type: functional
SF-268 = assay: Antiproliferative activity against human SF-268 cells assessed as cell growth inhibition incubated for 72 hrs by MTT assay; assay type: functional
SF-295 = assay: Antiproliferative activity against human SF-295 cells assessed as cell growth inhibition incubated for 72 hrs by MTT assay; assay type: functional
SNB-19 = assay: Antiproliferative activity against human SNB-19 cells assessed as cell growth inhibition incubated for 72 hrs by MTT assay; assay type: functional
SNB-75 = assay: Antiproliferative activity against human SNB-75 cells assessed as cell growth inhibition incubated for 72 hrs by MTT assay; assay type: functional
U-251 = assay: Antiproliferative activity against human U-251 cells assessed as cell growth inhibition incubated for 72 hrs by MTT assay; assay type: functional
Malme-3M = assay: Antiproliferative activity against human Malme-3M cells assessed as cell growth inhibition incubated for 72 hrs by MTT assay; assay type: functional
MDA-MB-435 = assay: Antiproliferative activity against human MDA-MB-435 cells assessed as cell growth inhibition incubated for 72 hrs by MTT assay; assay type: functional
SK-MEL-2 = assay: Antiproliferative activity against human SK-MEL-2 cells assessed as cell growth inhibition incubated for 72 hrs by MTT assay; assay type: functional
SK-MEL-5 = assay: Antiproliferative activity against human SK-MEL-5 cells assessed as cell growth inhibition incubated for 72 hrs by MTT assay; assay type: functional
UACC-62 = assay: Antiproliferative activity against human UACC-62 cells assessed as cell growth inhibition incubated for 72 hrs by MTT assay; assay type: functional
IGROV-1 = assay: Antiproliferative activity against human IGROV-1 cells assessed as cell growth inhibition incubated for 72 hrs by MTT assay; assay type: functional
OVCAR-4 = assay: Antiproliferative activity against human OVCAR-4 cells assessed as cell growth inhibition incubated for 72 hrs by MTT assay; assay type: functional
OVCAR-5 = assay: Antiproliferative activity against human OVCAR-5 cells assessed as cell growth inhibition incubated for 72 hrs by MTT assay; assay type: functional
OVCAR-8 = assay: Antiproliferative activity against human OVCAR-8 cells assessed as cell growth inhibition incubated for 72 hrs by MTT assay; assay type: functional
NCI/ADR-RES = assay: Antiproliferative activity against human NCI-ADR-RES cells assessed as cell growth inhibition incubated for 72 hrs by MTT assay; assay type: functional
SK-OV-3 = assay: Antiproliferative activity against human SK-OV-3 cells assessed as cell growth inhibition incubated for 72 hrs by MTT assay; assay type: functional
786-0 = assay: Antiproliferative activity against human 786-0 cells assessed as cell growth inhibition incubated for 72 hrs by MTT assay; assay type: functional
ACHN = assay: Antiproliferative activity against human ACHN cells assessed as cell growth inhibition incubated for 72 hrs by MTT assay; assay type: functional
RXF 393 = assay: Antiproliferative activity against human RXF 393 cells assessed as cell growth inhibition incubated for 72 hrs by MTT assay; assay type: functional
UO-31 = assay: Antiproliferative activity against human UO-31 cells assessed as cell growth inhibition incubated for 72 hrs by MTT assay; assay type: functional
PC-3 = assay: Antiproliferative activity against human PC-3 cells assessed as cell growth inhibition incubated for 72 hrs by MTT assay; assay type: functional
DU-145 = assay: Antiproliferative activity against human DU-145 cells assessed as cell growth inhibition incubated for 72 hrs by MTT assay; assay type: functional
MDA-MB-231 = assay: Antiproliferative activity against human MDA-MB-231 cells assessed as cell growth inhibition incubated for 72 hrs by MTT assay; assay type: functional
Hs-578T = assay: Antiproliferative activity against human Hs-578T cells assessed as cell growth inhibition incubated for 72 hrs by MTT assay; assay type: functional
BT-549 = assay: Antiproliferative activity against human BT-549 cells assessed as cell growth inhibition incubated for 72 hrs by MTT assay; assay type: functional
VL51 [1] = assay: Antiproliferative activity against human VL51 cells assessed as proliferating cells at 1 uM incubated for 72 hrs by MTT assay relative to control; assay type: functional
[2] = Antiproliferative activity against human MINO cells assessed as proliferating cells at 1 uM incubated for 72 hrs by MTT assay relative to control; assay type: functional
[3] = Antiproliferative activity against human HBL1 cells assessed as proliferating cells at 1 uM incubated for 72 hrs by MTT assay relative to control; assay type: functional
SU-DHL10 [4] = assay: Antiproliferative activity against human SU-DHL-10 cells assessed as proliferating cells at 1 uM incubated for 72 hrs by MTT assay relative to control; assay type: functional
VL51 [5] = assay: Antiproliferative activity against human VL51 cells assessed as inhibition of cell proliferation incubated for 72 hrs by MTT assay; assay type: functional, cell-based; conditions: VL51, 72 h
SU-DHL10 [6] = assay: Antiproliferative activity against human SU-DHL-10 cells assessed as inhibition of cell proliferation incubated for 72 hrs by MTT assay; assay type: functional, cell-based; conditions: SU-DHL10, 72 h
HOP-62 = assay: Antiproliferative activity against human HOP-62 cells assessed as cell growth inhibition incubated for 72 hrs by MTT assay; assay type: functional
T47D = assay: Antiproliferative activity against human T47D cells assessed as cell growth inhibition incubated for 72 hrs by MTT assay; assay type: functional

Which results are given for `COc1ccc(Cn2cc3c(c2-c2cc(OC)c(OC)c(OC)c2)CCc2c(CO)noc2-3)cc1`?
GI50 (CCRF-CEM): 320 nM; GI50 (MOLT-4): 440 nM; GI50 (RPMI-8226): 420 nM; GI50 (EKVX): 510 nM; GI50 (HOP-92): 3390 nM; GI50 (NCI-H226): 15000 nM; GI50 (NCI-H23): 520 nM; GI50 (NCI-H322M): 640 nM; GI50 (NCI-H460): 340 nM; GI50 (COLO 205): 300 nM; GI50 (HCT-116): 270 nM; GI50 (HCT-15): 260 nM; GI50 (HT-29): 320 nM; GI50 (KM12): 270 nM; GI50 (SF-268): 1060 nM; GI50 (SF-295): 180 nM; GI50 (SNB-19): 390 nM; GI50 (SNB-75): 180 nM; GI50 (U-251): 330 nM; GI50 (Malme-3M): 13500 nM; GI50 (MDA-MB-435): 30 nM; GI50 (SK-MEL-2): 460 nM; GI50 (SK-MEL-5): 210 nM; GI50 (UACC-62): 250 nM; GI50 (IGROV-1): 490 nM; GI50 (OVCAR-4): 5440 nM; GI50 (OVCAR-5): 710 nM; GI50 (OVCAR-8): 380 nM; GI50 (NCI/ADR-RES): 260 nM; GI50 (SK-OV-3): 370 nM; GI50 (786-0): 360 nM; GI50 (ACHN): 620 nM; GI50 (RXF 393): 160 nM; GI50 (UO-31): 580 nM; GI50 (PC-3): 270 nM; GI50 (DU-145): 390 nM; GI50 (MDA-MB-231): 630 nM; GI50 (Hs-578T): 410 nM; GI50 (BT-549): 490 nM; Activity (VL51 [1]): 51.3%; Activity [2]: 82.1%; Activity [3]: 80.3%; Activity (SU-DHL10 [4]): 62.1%; IC50 (VL51 [5]): 1600 nM; IC50 (SU-DHL10 [6]): 1800 nM

For `COc1ccc(Cn2cc3c(c2-c2cc(OC)c(OC)c(OC)c2)CCc2c(CN4CCOCC4)noc2-3)cc1`, which GI50 (CCRF-CEM) is on record?
The GI50 was 1260 nM.

What about the GI50 (MOLT-4) of the same compound?
Its GI50 is 3060 nM.

What about the GI50 (RPMI-8226) of the same compound?
The GI50 was 770 nM.

And the GI50 (EKVX)?
The GI50 was 1400 nM.

And the GI50 (HOP-62)?
Its GI50 is 1000 nM.

And the GI50 (HOP-92)?
Its GI50 is 900 nM.

What about the GI50 (NCI-H226) of the same compound?
Its GI50 is 890 nM.

And the GI50 (NCI-H23)?
The GI50 was 2170 nM.

And the GI50 (NCI-H460)?
Its GI50 is 520 nM.

What about the GI50 (COLO 205) of the same compound?
Its GI50 is 590 nM.

And the GI50 (HCT-116)?
Its GI50 is 500 nM.

What about the GI50 (HCT-15) of the same compound?
Its GI50 is 510 nM.

And the GI50 (HT-29)?
The GI50 was 640 nM.

What about the GI50 (KM12) of the same compound?
Its GI50 is 400 nM.

What about the GI50 (SF-268) of the same compound?
The GI50 was 780 nM.

And the GI50 (SF-295)?
The GI50 was 470 nM.

What about the GI50 (SNB-19) of the same compound?
Its GI50 is 860 nM.

And the GI50 (SNB-75)?
The GI50 was 310 nM.

And the GI50 (U-251)?
Its GI50 is 880 nM.

What about the GI50 (Malme-3M) of the same compound?
Its GI50 is 500 nM.

What about the GI50 (MDA-MB-435) of the same compound?
Its GI50 is 250 nM.

And the GI50 (SK-MEL-2)?
The GI50 was 550 nM.

And the GI50 (SK-MEL-5)?
The GI50 was 1860 nM.

What about the GI50 (UACC-62) of the same compound?
The GI50 was 610 nM.

What about the GI50 (IGROV-1) of the same compound?
The GI50 was 810 nM.

And the GI50 (OVCAR-4)?
The GI50 was 6840 nM.

What about the GI50 (OVCAR-8) of the same compound?
Its GI50 is 1920 nM.

And the GI50 (NCI/ADR-RES)?
The GI50 was 430 nM.

And the GI50 (SK-OV-3)?
The GI50 was 970 nM.

What about the GI50 (786-0) of the same compound?
The GI50 was 770 nM.

What about the GI50 (ACHN) of the same compound?
The GI50 was 630 nM.

And the GI50 (RXF 393)?
Its GI50 is 290 nM.

What about the GI50 (UO-31) of the same compound?
The GI50 was 760 nM.

And the GI50 (PC-3)?
The GI50 was 650 nM.

What about the GI50 (DU-145) of the same compound?
Its GI50 is 1990 nM.

What about the GI50 (MDA-MB-231) of the same compound?
Its GI50 is 2250 nM.

What about the GI50 (Hs-578T) of the same compound?
Its GI50 is 500 nM.

And the GI50 (BT-549)?
Its GI50 is 1340 nM.

And the GI50 (T47D)?
Its GI50 is over 100000 nM.

And the Activity (VL51 [1])?
Its Activity is 53.3%.

And the Activity [2]?
The Activity was 5.3%.

What about the Activity [3] of the same compound?
The Activity was 33.9%.

What about the Activity (SU-DHL10 [4]) of the same compound?
The Activity was 0.7%.

And the IC50 (VL51 [5])?
Its IC50 is 200 nM.

And the IC50 (SU-DHL10 [6])?
Its IC50 is 500 nM.
